Assay results taken from patent US10053443B2, “2-phenylbenzofuran derivatives, method for preparing the same and use of the same for treating inflammatory disease” (KOREA RESEARCH INSTITUTE OF BIOSCIENCE AND BIOTECHNOLOGY, priority 2014, dated 2018).

Experiments:
[1] = test system: Nitrogen Oxide (NO) generation; test: Inhibition of nitrogen oxide (NO) generation in LPS-treated Raw 264.7 cells (Griess); type: cell-based, mouse; conditions: Raw 264.7, LPS 500 ng/ml, 24 hours
Experimental: Raw 264.7 (ATCC TIB71) cells were inoculated in a 96-well plate containing the same medium as used in Experimental Example 1 at the density of 1×10^5 cells/well. The cells were cultured in 5% CO2 at 37° C. for 4 hours to attach the cells onto the plate. The cells were treated with each sample at different concentrations, followed by further culture for 1 hour. […] were treated thereto at the final concentration of 500 ng/ml, followed by further culture for 24 hours. 100 μl of the supernatant was taken and transferred in a new plate, which was mixed with Griess reagent (a mixture of 1% sulfanilamide, 0.1% N-[1-naphthyl]-ethylenediamine dihydrochloride, and 5% phosphoric acid), followed by reaction for 10 minutes. Then, OD540 was measured. NO generation was quantified by using the sodium nitrite standard curve prepared from […] dissolved in the same medium at different concentrations. Considering the NO generation of the inflammation induced macrophages as 100%, the NO generation inhibition rate was calculated and presented in Table 7.

[2] = test system: Tumor Necrosis Factor Alpha (TNF-alpha); test: Inhibition of TNF-alpha generation in LPS-treated Raw 264.7 cells (ELISA); type: cell-based; conditions: Mus musculus, RAW264.7; Raw 264.7, LPS treated; read-out: Grades of IC50 on TNF-alpha generation
Experimental: Raw 264.7 cells were distributed by the same manner as described in Experimental Example <2-1>, which were treated with the samples selected due to their high NO and IL-6 suppressing effect at different concentrations. TNF-alpha included in the supernatant was measured by enzyme-linked immunosorbent assay (TNF-alpha ELISA kit, R&D Systems, MN, USA).
Particularly, 100-fold diluted supernatant was distributed in a 96-well plate on which TNF-alpha antibody was attached, followed by adhesion for 2 hours. The supernatant remaining after the adhesion was washed with a washing buffer. The detection antibody and HRP were adhered on the washed plate for 1 hour. The remaining antibody was washed. Color development was induced by using TMB substrate. The reaction was terminated with sulfuric acid solution. Then, OD450 was measured. TNF-alpha in the supernatant was quantified by using the standard curve made with the standard TNF-alpha included in the kit. TNF-alpha suppression rate was calculated by measuring the same concentration that could inhibit TNF-alpha generation up to 50% in the LPS treated group and the results are shown in Table 9.

[3] = test system: bronchial asthma induced animal model; test: Airway hyperreactivity (Penh) in ovalbumin-induced bronchial asthma mice; type: in vivo, mouse; conditions: OVA asthma Balb/c mice, 5 or 15 mg/kg PO, FIG. 1
Experimental: (§1) 6 week old Balb/c female mice in the average weight of 20 g were adapted for 1 week. 2 mg of aluminum hydroxide (A8222, Sigma, St. Louis, Mo.) and 20 μg of ovalbumin (A5503, sigma, St. Louis, Mo.) were suspended in phosphate buffer (pH 7.4). Each mouse was administered with 200 μl of the phosphate buffer suspension via intraperitoneal injection for sensitization at 2 weeks intervals. The mouse was forced to inhale 1% ovalbumin (OVA) through ultrasonic atomizer for 30 minutes a day for 3 days after the first intraperitoneal injection of ovalbumin. 24 hours after the antigen administration, airway hyperreactivity was measured. 48 hours later, a lethal dose of pentobarbital (Entobar, Hanlim Pharma. Co., Ltd.) was administered to the mouse. The bronchus was opened and the alveoli were washed with 1.4 ml of saline. Then, the test samples were obtained. The normal control (NC) was not administered with ovalbumin nor inhaled. […]
After performing the experiment of Experimental Example <3-1> above, airway resistance was measured by using one chamber plethysmography (All Medicus, Seoul) to obtain Penh (enhanced pause) values which were the mathematically calculated numbers reflecting airway obstruction in order to measure airway hyperreactivity. To measure Penh value, basal value in normal breathing status was first measured. […]

interleukin 5 = test: Interleukin 5 in bronchoalveolar lavage fluid of asthma mice (ELISA); type: in vivo, mouse; conditions: OVA asthma Balb/c mice, 5 or 15 mg/kg PO, FIG. 2
Experimental: as §1, with “inhaled. The asthma induced group (OVA) was administered with ovalbumin and inhaled to induce bronchial asthma.” for “inhaled.”
(§2) After performing the experiment of Experimental Example <3-1> above, Th2 cytokine (interleukin 5, 13) in bronchoalveolar was measured by sandwich type enzyme immunoassay. […] The content of each cytokine was measured using the kit according to the manufacturer's instruction.

interleukin 13 = test: Interleukin 13 in bronchoalveolar lavage fluid of asthma mice (ELISA); type: in vivo, mouse; conditions: OVA asthma Balb/c mice, 5 or 15 mg/kg PO, FIG. 3
Experimental: as §1, with “inhaled. The asthma induced group (OVA) was administered with ovalbumin and inhaled to induce bronchial asthma.” for “inhaled.”
as §2

serum IgE = test: Level of serum IgE in asthma mice; type: in vivo, mouse; conditions: OVA asthma Balb/c mice, 5 or 15 mg/kg PO, FIG. 4
Experimental: as §1, with “inhaled. The asthma induced group (OVA) was administered with ovalbumin and inhaled to induce bronchial asthma. The comparative control was orally administered with dexamethasone (2 mg/kg, PO) one hour before the inhalation (DEX).” for “inhaled.”
After performing the experiment of Experimental Example <3-1> above, the level of serum IgE relating to the severity of asthma was measured by enzyme immunoassay. […] Then, OD650 was measured.

[4] = test system: inflammatory cells (eosinophils); test: Number of inflammatory cells in bronchoalveolar lavage fluid (Diff-Quick); type: in vivo, mouse; conditions: OVA asthma Balb/c mice, 5 or 15 mg/kg PO, FIG. 5
Experimental: as §1, with “inhaled. The asthma induced group (OVA) was administered with ovalbumin and inhaled to induce bronchial asthma. The comparative control was orally administered with dexamethasone (2 mg/kg, PO) one hour before the inhalation (DEX).” for “inhaled.”
After performing the experiment of Experimental Example <3-1> above, the number of inflammatory cells in bronchoalveolar lavage fluid was measured by Diff-Quick staining.

SMILES: COc1cc(CCCO)cc2cc(-c3ccc(C)cc3)oc12 [Example 4, 3-(7-methoxy-2-p-tolylbenzofuran-5-yl)propane-1-ol]
- Grades of NO generation inhibition rate (%) [1]: B (B: 25<B≤35)
- IC50 [2]: 1000 to 3000 nM
- Penh value (airway hyperreactivity) [3]: significantly reduced
- content of interleukin 5 in bronchoalveolar lavage fluid (interleukin 5): significantly reduced
- content of interleukin 13 in bronchoalveolar lavage fluid (interleukin 13): significantly reduced
- generation of serum IgE induced by OVA (serum IgE): efficiently reduced
- infiltration of inflammatory cells (eosinophils) in bronchoalveolar lavage fluid [4]: efficiently reduce
